Data: publication PMC10142799, “Synthesis, In Silico and In Vitro Characterization of Novel N,N-Substituted Pyrazolopyrimidine Acetamide Derivatives for the 18KDa Translocator Protein (TSPO)” (Pharmaceuticals, 2023)
Several values for one entry are separate records, joined by “and”; a condition that tells them apart may be missing. Identical values can stand only once. Like-named read-outs stand apart in the source and are kept apart here.

Columns and labels:
TSPO = target: T1, TSPO (Homo sapiens, UniProt P30536); test: In vitro TSPO binding assay, competition with [3H]PK11195 in membrane of human leukocytes
T1 construct: from tissue; host or cells: isolated human leukocytes (membranes)

[1] = In vitro cytotoxicity (MTT assay) on L-929 cells; type: cell-based, mouse; conditions: mouse, L-929 mouse fibroblast cells, L-929, 24 h, MTT, read-out: Cell viability
Experimental: (§1) Five concentrations of each compound dissolved in 2% of DMSO in culture media (50 μL) were introduced into cell media (96-well plate). The cell cultures treated with ligands were incubated 24 h, and then the media were removed. The cell crudes were measured at 570 nm and 650 nm using a MTT reagent. All procedures and reagents followed ISO 10993-5 and ISO 10993-12.
(§2) 929, mouse fibroblast cells) were cultured in a 96 well plate and treated with 50 […]
(§3) concentration. After incubation at 37 ° C for 24 hours under CO […]
(§4) fluid, the treated culture medium was removed and the absorbance of each samples were measured at 570 and 650 nm using MTT reagent.
(§5) Blank was administered with only 50uL of cell incubation media. As a control, a 50 […]
(§6) n media was administered.
(§7) MTT assay followed ISO 10993 […]
(§8) values of cell viability for GMA 10, GMA 11, GMA 15, DPA

[2] = system: L-929 (mouse fibroblast cells); test: In vitro cytotoxicity (MTT assay) on L-929 cells; type: cell-based; conditions: Mus musculus, read-out: IC50 values of cell viability
Experimental: as §1, §2, §3, §4, §5, §6, §7, §8

[3] = L929, L-929, 24 h, MTT, same values given in μM

T1 sequence (P30536 whole entry): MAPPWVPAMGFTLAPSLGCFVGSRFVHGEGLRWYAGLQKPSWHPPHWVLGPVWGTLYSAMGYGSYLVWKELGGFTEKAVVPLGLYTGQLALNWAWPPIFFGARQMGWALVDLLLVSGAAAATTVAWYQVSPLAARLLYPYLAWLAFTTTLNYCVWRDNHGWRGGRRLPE

Compound | Ki (TSPO) [nM] | viability at 24 h, 3.125 μg/mL [1] [%] | viability at 24 h, 6.25 μg/mL [1] [%] | viability at 24 h, 12.5 μg/mL [1] [%] | viability at 24 h, 25 μg/mL [1] [%] | viability at 24 h, 50 μg/mL [1] [%] | IC50 ([2]; L929, L-929, 24 h, MTT) [µg/mL] | IC50 [2, 3] [µM] | IC50 ([2]; L929, 24 h) | fold enhancement in affinity compared to DPA-714 (TSPO; ratio of Ki values) [fold] | fold higher affinity compared to PK11195 (TSPO; ratio of Ki values) [fold]
CCc1cc(CC)n2nc(-c3ccc(F)cc3)c(CC(=O)N(C)CC)c2n1 [GMA 7, 2-(5,7-diethyl-2-(4-fluorophenyl)pyrazolo [1,5-a]pyrimidin-3-yl)-N-ethyl-N-methylacetamide] | 17.1 | – | – | – | – | – | – | – | – | – | –
CCc1cc(CC)n2nc(-c3ccc(F)cc3)c(CC(=O)N(CC)C(C)C)c2n1 [GMA 9, 2-(5,7-Diethyl-2-(4-fluorophenyl)pyrazolo [1,5-a]pyrimidin-3-yl)-N-ethyl-N-isopropyl acetamide] | 13.3 | – | – | – | – | – | – | – | – | – | –
CCc1cc(CC)n2nc(-c3ccc(F)cc3)c(CC(=O)N(CCOC)CCOC)c2n1 [GMA 12, 2-(5,7-Diethyl-2-(4-fluorophenyl)pyrazolo [1,5-a]pyrimidin-3-yl)-N,N-bis(2-methoxyethyl) acetamide] | 25.4 | – | – | – | – | – | – | – | – | – | –
CCC(C)N(C)C(=O)c1cc2ccccc2c(-c2ccccc2Cl)n1 (centres unmarked) [PK11195, reference compound] | – | 57.8 ± 5.22 | 49.08 ± 0.43 | 48.18 ± 0.43 | 38.3 ± 4.8 | 32.8 ± 3.14 | – | – | 22.1 µg/mL and 62.7 µM | – | –
CCc1cc(CC)n2nc(-c3ccc(F)cc3)c(CC(=O)N(CC)c3ccccc3)c2n1 [GMA 15, 2-(5,7-diethyl-2-(4-fluorophenyl)pyrazolo [1,5-a]pyrimidin-3-yl)-N-ethyl-N-phenylacetamide] | 0.06 | 57.9 ± 4.04 | 50.6 ± 2.39 | 26 ± 8.01 | 9.6 ± 1.6 | 6.6 ± 2.15 | 9.73 | 22.6 | – | 61 | 22

The remaining molecules from weak to strong by Ki (TSPO), led by results:

Ki (TSPO) [nM] | Compound | viability at 24 h, 3.125 μg/mL [1] [%] | viability at 24 h, 6.25 μg/mL [1] [%] | viability at 24 h, 12.5 μg/mL [1] [%] | viability at 24 h, 25 μg/mL [1] [%] | viability at 24 h, 50 μg/mL [1] [%] | IC50 ([2]; L929, L-929, 24 h, MTT) [µg/mL] | IC50 [2, 3] [µM] | IC50 ([2]; L929, 24 h) | fold enhancement in affinity compared to DPA-714 (TSPO; ratio of Ki values) [fold] | fold higher affinity compared to PK11195 (TSPO; ratio of Ki values) [fold]
8.79 | CCc1cc(CC)n2nc(-c3ccc(F)cc3)c(CC(=O)N(CC)CC)c2n1 [GMA 8, 2-(5,7-diethyl-2-(4-fluorophenyl)pyrazolo [1,5-a]pyrimidin-3-yl)-N,N-diethylacetamide] | – | – | – | – | – | – | – | – | – | –
3.66 | CCN(CC)C(=O)Cc1c(-c2ccc(OCCF)cc2)nn2c(C)cc(C)nc12 [DPA-714, reference compound] | 51 ± 4.08 | 47.3 ± 3.44 | 45.2 ± 1.86 | 32.1 ± 2.54 | 11.2 ± 1.94 | 18.6 | 46.7 | – | – | –
0.9 | C#CCN(CC#C)C(=O)Cc1c(-c2ccc(F)cc2)nn2c(CC)cc(CC)nc12 [GMA 13, 2-(5,7-diethyl-2-(4-fluorophenyl)pyrazolo [1,5-a]pyrimidin-3-yl)-N,N-di(prop-2-yn-1-yl) acetamide] | – | – | – | – | – | – | – | – | – | –
0.54 | CCc1cc(CC)n2nc(-c3ccc(F)cc3)c(CC(=O)N(CC)Cc3cc(OC)ccc3OC)c2n1 [GMA 17, 2-(5,7-diethyl-2-(4-fluorophenyl)pyrazolo [1,5-a]pyrimidin-3-yl)-N-(2,5-dimethoxybenzyl)-N-ethylacetamide] | – | – | – | – | – | – | – | – | – | –
0.49 | CCc1cc(CC)n2nc(-c3ccc(F)cc3)c(CC(=O)N(CC)Cc3ccccc3OC)c2n1 [GMA 16, 2-(5,7-diethyl-2-(4-fluorophenyl)pyrazolo [1,5-a]pyrimidin-3-yl)-N-ethyl-N-(2-methoxybenzyl)acetamide] | – | – | – | – | – | – | – | – | – | –
0.19 | CCc1cc(CC)n2nc(-c3ccc(F)cc3)c(CC(=O)N(CC)CCOC)c2n1 [GMA 11, 2-(5,7-diethyl-2-(4-fluorophenyl)pyrazolo [1,5-a]pyrimidin-3-yl)-N-ethyl-N-(2-methoxyethyl) acetamide] | 61.7 ± 0.71 | 58.3 ± 3.12 | 39.5 ± 0.63 | 33.5 ± 2.28 | 28.9 ± 1.12 | 36.2 | 87.8 | – | – | –
0.18 | CCCN(CCC)C(=O)Cc1c(-c2ccc(F)cc2)nn2c(CC)cc(CC)nc12 [GMA 10, 2-(5,7-diethyl-2-(4-fluorophenyl)pyrazolo [1,5-a]pyrimidin-3-yl)-N,N-dipropylacetamide] | 64.5 ± 1.19 | 53.4 ± 2.02 | 39.8 ± 0.74 | 24.6 ± 3.13 | 19.8 ± 1.19 | 15.2 | 37.1 | – | – | –
